Test results from patent US20080057529A1, “Method for Identifying Histone Deacetylase Inhibitors” (priority 2003, published 2008).

Tests used:
CMV promoter = test: Transient transfection of HeLa cells with CMV-BLA (pCMV-BLA) reporter plasmid, Bla staining (blue cells); format: cell-based, human; settings: Apicidin 1 μM; for % Blue cells: Table 3, 2 μg pCMV-BLA + 0.1 μg pCMV-Luc, TSA 300 nM; for Bla staining at 60 min. / fold-ind. at 60 min. (Bla): Table 6; for fold-ind. at 60 min. (Bla): vs DMSO
Experimental: The p21m-BLA reporter plasmid was tested in transient transfection experiments of HeLa cells to evaluate the responsiveness of the minimal p21 promoter and the Bla reporter system to known HDAC inhibitors. In the first two transfection experiments, HeLa cells were transfected with 1 or 2 μg of Bla reporter plasmid containing either p21 minimal promoter (p21m-BLA) or CMV promoter (CMV-BLA) and 0.1 μg of pCMV-Luc or pRSV-Luc control plasmids. Different DNA-FUGENE transfection reagent ratios were tested (FUGENE is available from Roche Applied Science, Indianapolis, Ind.). […] Data are summarized below in Tables 1 and 2.
The percentage of β-lactamase-positive cells increased with time independent of the presence of HDAC inhibitors and was constantly higher with p21m-BLA than with pCMV-BLA.
In light of the above, the lack of apparent Bla activation in the above transfection experiments might have been due to the high sensitivity of the method. Therefore, transient transfections in which an accurate titration of the reporter plasmid DNA were performed. The titration of the reporter plasmid included using amounts lower than was used above. […] The transient transfections were repeated and the result confirmed (Table 7).

p21 minimal promoter = test: Transient transfection of HeLa cells with p21m-SEAP reporter plasmid, SEAP activity; format: cell-based, human; settings: Apicidin 1 μM
Experimental: To determine whether the p21 minimal promoter was responsive to HDAC inhibitors, a reporter plasmid containing the secreted alkaline phosphatase gene (SEAP) operably linked to the p21 minimal promoter (−182 through +25), pcDNA3-21m-SEAP, was tested in transient transfection experiments of HeLa cells. […] All data summarized in Tables 4 through 7 were obtained by normalizing the total amount of transfected DNA to 2.1 μg using a promoterless plasmid.

[1] = Table 4, P21m-SEAP 0 μg DNA, vs DMSO
[2] = Table 4, P21m-SEAP 0.1 μg DNA, vs DMSO
[3] = Table 4, P21m-SEAP 0.2 μg DNA, vs DMSO
[4] = Table 4, P21m-SEAP 0.5 μg DNA, vs DMSO
[5] = Table 4, P21m-SEAP 1 μg DNA, vs DMSO
[6] = Table 4, P21m-SEAP 2 μg DNA, vs DMSO
[7] = Table 5, TSA 300 nM, P21m-SEAP 0.1 μg DNA, vs DMSO

Compound: CCC(=O)CCCCC[C@@H]1NC(=O)[C@H]2CCCCN2C(=O)[C@H]([C@@H](C)CC)NC(=O)[C@H](Cc2cn(OC)c3ccccc23)NC1=O [Apicidin]
- % Blue cells (CMV promoter; 6 hr treatment): 4%
- % Blue cells (CMV promoter; 12 hr treatment): 3%
- % Blue cells (CMV promoter; 24 hr treatment): 10%
- Bla staining at 60 min. (CMV promoter; pCMV-BLA 0 μg DNA): 0%
- Bla staining at 60 min. (CMV promoter; pCMV-BLA 0.02 μg DNA): 5%
- fold-ind. at 60 min. (Bla) (CMV promoter; pCMV-BLA 0.02 μg DNA): 1 fold
- Bla staining at 60 min. (CMV promoter; pCMV-BLA 0.05 μg DNA): 5-10%
- fold-ind. at 60 min. (Bla) (CMV promoter; pCMV-BLA 0.05 μg DNA): 1 fold
- Bla staining at 60 min. (CMV promoter; pCMV-BLA 0.1 μg DNA): 10-15%
- fold-ind. at 60 min. (Bla) (CMV promoter; pCMV-BLA 0.1 μg DNA): 1 fold
- Bla staining at 60 min. (CMV promoter; pCMV-BLA 0.2 μg DNA): 20%
- fold-ind. at 60 min. (Bla) (CMV promoter; pCMV-BLA 0.2 μg DNA): 1 fold
- Bla staining at 60 min. (CMV promoter; pCMV-BLA 0.5 μg DNA): 40%
- fold-ind. at 60 min. (Bla) (CMV promoter; pCMV-BLA 0.5 μg DNA): 1 fold
- induction of SEAP (maximum) (p21 minimal promoter; TSA 300 nM, p21m-SEAP promoter titration in HeLa): up to 20 fold
- SEAP (10 min) (p21 minimal promoter; Table 4, P21m-SEAP 0 μg DNA (total DNA 2.1 μg)): 11366
- SEAP activity normalised to total protein (p21 minimal promoter; Table 4, P21m-SEAP 0 μg DNA): 5683
- Fold Induct. (SEAP norm) (p21 minimal promoter; [1]): 4.901 fold
- Fold induct. (SEAP) (p21 minimal promoter; [1]): 3.5 fold
- SEAP (10 min) (p21 minimal promoter; Table 4, P21m-SEAP 0.1 μg DNA (total DNA 2.1 μg)): 41278
- SEAP activity normalised to total protein (p21 minimal promoter; Table 4, P21m-SEAP 0.1 μg DNA): 27518.67
- Fold Induct. (SEAP norm) (p21 minimal promoter; [2]): 7.691 fold
- Fold induct. (SEAP) (p21 minimal promoter; [2]): 4.8 fold
- SEAP (10 min) (p21 minimal promoter; Table 4, P21m-SEAP 0.2 μg DNA (total DNA 2.1 μg)): 33449
- SEAP activity normalised to total protein (p21 minimal promoter; Table 4, P21m-SEAP 0.2 μg DNA): 16724.5
- Fold Induct. (SEAP norm) (p21 minimal promoter; [3]): 14.9372 fold
- Fold induct. (SEAP) (p21 minimal promoter; [3]): 10.3 fold
- SEAP (10 min) (p21 minimal promoter; Table 4, P21m-SEAP 0.5 μg DNA (total DNA 2.1 μg)): 81729
- SEAP activity normalised to total protein (p21 minimal promoter; Table 4, P21m-SEAP 0.5 μg DNA): 54486
- Fold Induct. (SEAP norm) (p21 minimal promoter; [4]): 19.2643 fold
- Fold induct. (SEAP) (p21 minimal promoter; [4]): 9.6 fold
- SEAP (10 min) (p21 minimal promoter; Table 4, P21m-SEAP 1 μg DNA (total DNA 2.1 μg)): 85405
- SEAP activity normalised to total protein (p21 minimal promoter; Table 4, P21m-SEAP 1 μg DNA): 61003.57
- Fold Induct. (SEAP norm) (p21 minimal promoter; [5]): 17.5478 fold
- Fold induct. (SEAP) (p21 minimal promoter; [5]): 8.8 fold
- SEAP (10 min) (p21 minimal promoter; Table 4, P21m-SEAP 2 μg DNA (total DNA 2.1 μg)): 795345
- SEAP activity normalised to total protein (p21 minimal promoter; Table 4, P21m-SEAP 2 μg DNA): 441858.3
- Fold Induct. (SEAP norm) (p21 minimal promoter; [6]): 15.3076 fold
- Fold induct. (SEAP) (p21 minimal promoter; [6]): 9.8 fold
- SEAP (10 min) (p21 minimal promoter; Table 5, TSA 300 nM, P21m-SEAP 0 μg DNA (total DNA 2.1 μg)): 2133
- SEAP (fold ind) (p21 minimal promoter; Table 5, TSA 300 nM, P21m-SEAP 0 μg DNA, vs DMSO): 1.8 fold
- SEAP norm-bckg/RLU norm (p21 minimal promoter; Table 5, TSA 300 nM, P21m-SEAP 0.1 μg DNA): 4,740.65
- SEAP (10 min) (p21 minimal promoter; Table 5, TSA 300 nM, P21m-SEAP 0.1 μg DNA (total DNA 2.1 μg)): 5661
- SEAP (fold ind) (p21 minimal promoter; [7]): 3.3 fold
- SEAP norm.-bckg/RLU norm (fold ind) (p21 minimal promoter; [7]): 10.7 fold
